Test systems include OVCAR-8 ovarian; M14 melanoma; PC-3 prostate; SW-620 colon; SF-295 CNS; KM12 colon; T-47D breast; HT29 colon; K-562 leukemia; RXF 393 renal.
Holding throughout (test): NCI anticancer screen, dose series, 48 h

Structures are written as SMILES. Values joined by “and” are separate entries in the source; they are usually repeats but may differ in a detail not shown here. Identical values can stand only once.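 Protocol summary: plate cells (96-well), add compound at 5 concentrations, incubate 48 h, interpolate endpoints linearly. GI50 is the concentration that inhibits growth by half. Definition used: TGI = concentration required for complete inhibition of growth.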

Turning to `C=C1C(=O)O[C@H]2[C@H]1CC/C(COC(=O)OCCCCCOC(=O)OC/C1=C/CC[C@@]3(C)O[C@H]3[C@H]3OC(=O)C(=C)[C@@H]3CC1)=C\CC[C@@]1(C)O[C@@H]21`, the GI50 in the experiment on OVCAR-8 ovarian is 0.331 µM; with M14 melanoma, 0.406 µM; in the experiment on PC-3 prostate it was 1.83 µM; in the experiment with SW-620 colon, 0.285 µM; in the experiment with SF-295 CNS, 2.12 µM; in the experiment with KM12 colon it was 1.51 µM. The GI50 is 0.244 µM in the experiment on T-47D breast, 0.242 µM with HT29 colon, 0.267 µM in the experiment with K-562 leukemia and 0.155 µM in the experiment with RXF 393 renal. Further, the TGI in the experiment with OVCAR-8 ovarian amounted to 0.998 µM; with M14 melanoma, 1.81 µM; with PC-3 prostate, 4.54 µM; in the experiment with SW-620 colon it was 0.902 µM; in the experiment on SF-295 CNS, 5.88 µM; in the experiment with KM12 colon, 3.31 µM. The TGI with T-47D breast amounted to 0.75 µM; with HT29 colon, 0.726 µM; with K-562 leukemia it was 1.08 µM; in the experiment on RXF 393 renal, 0.307 µM.
Take `COc1ccc(OC)c(/C=C/[N+](=O)[O-])c1`: the GI50 was 3.31 µM with OVCAR-8 ovarian; 2.53 µM and 12.4 µM in the experiment with PC-3 prostate; 3.09 µM with SF-295 CNS; 2.6 µM and 13.3 µM in the experiment on KM12 colon; 2.08 µM in the experiment with K-562 leukemia; 1.8 µM in the experiment with RXF 393 renal. Further, the TGI in the experiment on OVCAR-8 ovarian was 17.3 µM and 15.2 µM; with M14 melanoma it was 4.44 µM and 6.86 µM; in the experiment with PC-3 prostate, 7.37 µM and 27.9 µM; in the experiment on SW-620 colon, 16.9 µM and 5.39 µM; in the experiment with SF-295 CNS, 9.46 µM and 11.4 µM; with KM12 colon it was 7.27 µM and 27.4 µM. Also, the TGI with T-47D breast was 46.8 µM; with HT29 colon, 6.33 µM and 7.41 µM; in the experiment with K-562 leukemia, 6.96 µM and 14.8 µM; in the experiment with RXF 393 renal, 3.59 µM and 3.54 µM.
For the molecule `Nc1ccccc1C#C/C=C\C#Cc1ccc(F)cc1F`, the GI50 in the experiment with OVCAR-8 ovarian was 25.2 µM; in the experiment on M14 melanoma, 16.5 µM; in the experiment with PC-3 prostate, 10.7 µM; in the experiment on SW-620 colon it was 36.9 µM; with SF-295 CNS, 7.12 µM; in the experiment with KM12 colon it was 4.17 µM. In addition, the GI50 with T-47D breast was 26 µM; in the experiment with HT29 colon, 31.1 µM; in the experiment with K-562 leukemia, 4.98 µM; with RXF 393 renal, 18.4 µM. Further, the TGI was 84.3 µM in the experiment with OVCAR-8 ovarian; 32 µM in the experiment with M14 melanoma; 56.5 µM in the experiment with PC-3 prostate; > 100 µM with SW-620 colon; 24.8 µM in the experiment on SF-295 CNS; 19.6 µM in the experiment with KM12 colon. Moreover, the TGI was > 100 µM in the experiment with T-47D breast, > 100 µM in the experiment on HT29 colon, > 100 µM in the experiment on K-562 leukemia and 43.2 µM in the experiment on RXF 393 renal.
On to `O=C(c1ccccc1)c1ccc(-c2ccc(O)cc2)cc1`, for which the GI50 with OVCAR-8 ovarian was 12.4 µM; with M14 melanoma, 2.04 µM; in the experiment with PC-3 prostate, 9.19 µM; in the experiment on SW-620 colon, 5.23 µM; in the experiment on SF-295 CNS, 2.43 µM; with KM12 colon, 2.85 µM. Moreover, the GI50 in the experiment with T-47D breast was 3.75 µM; with HT29 colon, 31.7 µM; with K-562 leukemia, 2.92 µM; in the experiment on RXF 393 renal, 7.93 µM. The TGI in the experiment with OVCAR-8 ovarian is 68.9 µM; with M14 melanoma, > 100 µM; in the experiment on PC-3 prostate, 58 µM; in the experiment on SW-620 colon, > 100 µM; in the experiment on SF-295 CNS it was 10.5 µM; with KM12 colon, 22.3 µM. Moreover, the TGI with T-47D breast was 35.6 µM; with HT29 colon, > 100 µM; in the experiment with K-562 leukemia, > 60.7 µM; with RXF 393 renal, 33.2 µM.
Regarding `Cn1ncc2cc(-c3cnc(N)c(Cl)c3N3CCC4(CCNC4=O)CC3)ccc21`, the GI50 in the experiment on OVCAR-8 ovarian was 39.1 µM; with M14 melanoma, 41.4 µM; in the experiment on PC-3 prostate, 42.1 µM; in the experiment on SW-620 colon it was 21.3 µM; with SF-295 CNS it was 31.2 µM; in the experiment on KM12 colon it was 32.3 µM. In addition, the GI50 in the experiment on T-47D breast was 15.7 µM; with HT29 colon, 46.2 µM; in the experiment with K-562 leukemia, 45.5 µM; in the experiment on RXF 393 renal, 8.11 µM. Further, the TGI in the experiment on OVCAR-8 ovarian, with M14 melanoma, in the experiment on PC-3 prostate, with SW-620 colon, in the experiment with SF-295 CNS and with KM12 colon was > 100 µM in each case. The TGI is 84.2 µM in the experiment with T-47D breast, > 100 µM in the experiment on HT29 colon, > 100 µM with K-562 leukemia and 54.3 µM in the experiment with RXF 393 renal.
On to `CN(C(=O)c1ccc(F)cc1C(F)(F)F)C1CCN(c2nnc(-c3ccnn3C)c3ccccc23)CC1`, for which the GI50 was 30.5 µM in the experiment with OVCAR-8 ovarian; 46.7 µM with M14 melanoma; 33.3 µM in the experiment on PC-3 prostate; > 100 µM with SW-620 colon; 31.5 µM in the experiment on SF-295 CNS; 52.8 µM in the experiment with KM12 colon. Besides, the GI50 in the experiment with T-47D breast was 10.6 µM; in the experiment with HT29 colon it was 55.5 µM; in the experiment on K-562 leukemia it was 27.3 µM; in the experiment with RXF 393 renal, 17.4 µM. Besides, the TGI with OVCAR-8 ovarian, in the experiment with M14 melanoma, in the experiment with PC-3 prostate, in the experiment on SW-620 colon, with SF-295 CNS and in the experiment on KM12 colon was > 100 µM in each case. The TGI in the experiment with T-47D breast was 99.4 µM; in the experiment with HT29 colon, > 100 µM; in the experiment on K-562 leukemia it was > 100 µM; in the experiment on RXF 393 renal it was > 84.3 µM.
With `COC1=CC(c2ccc[nH]2)=N/C1=C\c1[nH]c(C)c(C(=O)CCC(=O)Oc2ccc3c(c2)CCC2C3CC[C@]3(C)C(=O)CC[C@@H]23)c1C` (stereo partly specified), the GI50 was 8.37 µM in the experiment on OVCAR-8 ovarian; 12.3 µM in the experiment with M14 melanoma; 6.52 µM in the experiment on PC-3 prostate; 0.773 µM with SW-620 colon; 21.4 µM with SF-295 CNS; 5.6 µM in the experiment with KM12 colon. Further, the GI50 in the experiment on T-47D breast was 13.9 µM; in the experiment on HT29 colon, 0.839 µM; in the experiment on K-562 leukemia, 4.22 µM; in the experiment with RXF 393 renal it was 11.7 µM. The TGI in the experiment on OVCAR-8 ovarian was > 100 µM; with M14 melanoma, 33.4 µM; with PC-3 prostate, > 100 µM; in the experiment with SW-620 colon, > 37.9 µM; in the experiment on SF-295 CNS, 85.3 µM; in the experiment with KM12 colon, > 100 µM. In addition, the TGI in the experiment on T-47D breast is > 100 µM; with HT29 colon, > 100 µM; in the experiment on K-562 leukemia, > 100 µM; in the experiment with RXF 393 renal, > 87.4 µM.

(Values after PubChem BioAssay (NCI).)
